Data taken from publication PMC12406198, “Decadentate Acyclic Chelators for Lanthanum Radiopharmaceuticals” (Journal of Medicinal Chemistry, 2025).
Where two headings read alike, the source gives them in different places. Values belong to the compound of their own block, whether it stands above or below them.

Legend:
[1] = Ligand protonation constants by pH-potentiometric titration; assay type: physicochemical; details: sum of literature protonation constants of related ligands
[2] = literature value, cited from earlier work
[3] = Stability constants of La^3+ complexes by pH potentiometry; assay type: physicochemical; details: for pLa: −log[La^3+]free for [L] = 10 μM and [La^3+] = 1 μM at pH 7.4 and 25 °C; for log K LaL ^La: 1:2 L:La^3+ complex; for log K LaL ^La / log K La2L ^OH / log K La2LOH ^OH / log K LaL / pH at which dissociation of the La^3+ complex occurs (speciation diagrams) / log K LaL ^OH: I = 0.15 M NaCl, 25 °C; for pH at which dissociation of the La^3+ complex occurs (speciation diagrams): cLa3+ = cLig = 10^–3 M; for log K LaL ^OH: hydroxo-complex; for amount of La^3+ not complexed at the beginning of the titration: pH 1.7
Description: The stability constants of the La^3+ complexes were determined using pH potentiometry (I = 0.15 NaCl). A significant amount of the metal ion is not complexed by the TPADAC^4– ligand at the beginning of the titration at pH 1.7 (∼20%), which allows for stability constant determination using potentiometry. In the case of TPAEN^4– the amount of free La^3+ was small (∼4%), but the stability constants could be determined by fitting the titration data using both 1:1 and 1:2 (TPAEN^4–:La^3+) stoichiometries (Figure S1, Supporting Information). The TPADAC^4– ligand also forms complexes with 1:1 and 1:2 stoichiometries (Figure S2, Supporting Information).
The thermodynamic stability of the complexes at physiologically relevant pH was assessed by calculating pLa values, defined as −log[La^3+]free for [L] = 10 μM and [La^3+] = 1 μM at pH 7.4 and 25 °C following the recommendation of Raymond. This is a result of the high stability constants (log K LaL) that characterize the formation of these complexes, as well as the relatively low basicity of these ligands. Indeed, cyclohexyl derivatives TPADAC^4– and CHXOCTAPA^4– display considerably higher basicity than the ethyl analogues, as indicated by the Σ log K i ^H (i = 1–5) values shown in Table . Similarly, DTPA and DO3A derivatives are characterized by rather high basicities, which results in relatively low pLa values.
(§1) The pH-potentiometric titrations were carried out with a Methrohm 785 DMP titrator using a Metrohm-6.0233.100 combined electrode. The titrated solutions (5.000 mL) were thermostated at 25 °C and stirred and kept under inert gas atmosphere (N2) to avoid the effect of CO2. The pH-calibration of the electrode was performed using KH-phthalate (pH = 4.005) and borax (pH = 9.177) buffers. The concentrations of the ligand stock solutions were determined by pH-potentiometric titration. The protonation constants of the TPAEN^4– (in the pH range of 2.19–12.00 a total of 213 data pairs by titrating a 2.72 mM a ligand solution) and TPADAC^4– (in the pH range of 1.88–11.85 a total of 208 data pairs by titrating a 2.32 mM ligand solution), the stability and protonation constants of the complexes formed with La^3+ and the formation constants of their dinuclear complexes were determined by pH-potentiometric titration. The metal-to-ligand concentration ratios were 1:1 and 2:1. For the 1:1 ratio a total of 240 data pairs were recorded for a H4TPAEN concentration of 2.29 mM in the pH range of 1.77–11.86, while a total of 222 data pairs were collected in the pH range 1.72–11.85 for a 2.72 mM solution of H4TPADAC. For the 2:1 ratio we collected 259 data pairs for a 2.31 mM solution of H4TPAEN in the pH range of 1.73–11.82, and 259 data pairs for a 2.71 mM concentration of H4TPADAC in the pH range of 1.70–11.85. The calculation of [H^+] from the measured pH values was performed with the use of the method proposed by Irving et al. by titrating a 0.01 M HCl solution (I = 0.15 M NaCl) with a standardized NaOH solution. The differences between the measured and calculated pH values were used to obtain the [H^+] concentrations from the pH-data obtained in the titrations. The ionic product of water was determined from the same experiment in the pH range 11.25–11.85. The protonation and stability constants were calculated from the titration data with the PSEQUAD program. The quality of the fits was assessed with the fitting parameter (FP) calculated by PSEQUAD, which is defined as 2 FP=∑i=1n(Vi,calc−Vi,meas)^2/n−k

[4] = cited from earlier work
[5] = Dissociation kinetics: transmetalation of La^3+ complexes with Cu^2+ as scavenger (UV-vis); assay type: physicochemical; details: for k 3 ^Cu: Cu^2+-assisted pathway; for k 3 ^Cu / k 6 ^Cu / k 2 / K Cu / k 1: 25 °C, 0.15 M NaCl; for k obs for [Cu^2+] = 1 nM / k obs for [Cu^2+] = 1 μM: calculated at pH 7.4; for k 6 ^Cu: dinuclear hydroxo-complex pathway; for k 2: diprotonated pathway; for K Cu: formation of ternary LaLCu complex; for k 1: proton-assisted dissociation of La^3+ complex
From the text: The inertness of metal complexes for radiopharmaceutical applications is important to ensure that the radioisotope is not released in vivo off-target. Furthermore, the detailed study of the dissociation mechanism of the complexes provides useful information for ligand design. Thus, we performed a detailed investigation of the dissociation kinetics of the [La(TPAEN)]^− and [La(TPADAC)]^− complexes using Cu^2+ as a scavenger. The reactions were studied spectrophotometrically in the approximate proton concentration range 1.1 × 10^–5–1.6 × 10^–2 M, which corresponds to a pH range of about 1.8–5.0. A large excess of Cu^2+ was used to ensure pseudo-first order conditions.
The latter may proceed through the formation of mono- or diprotonated intermediates, with associated rate constants k 1 and k 2, respectively. […] Thus, we analyzed the kinetic data using the following expression: 1 kobs=k0+k1[H^+]+k2[H^+]^2+k3[Cu^2+]+k6[Cu^2+]Kw/[H^+]/1+KCu[Cu^2+] Here, k 1, k 2, k 3 ^Cu and k 6 ^Cu are the rate constants defined above, k 0 is the rate constant characterizing the spontaneous dissociation mechanism, K w is the ionic product of water (fixed at pK w = 13.72) and K Cu is the equilibrium constant for the formation of the ternary complex (K Cu= [LaLCu]/[Cu^2+][LaL]).
The rates of the metal exchange reactions of the [La(TPAEN)]^− and [La(TPADAC)]^− complexes with Cu(II) were studied by using UV–vis spectrophotometry following the formation of corresponding Cu(II) complexes. The metal exchange reactions of [La(TPAEN)]^− and [La(TPADAC)]^− were examined by conventional spectrophotometric methods tracking the changes in absorption at 305 nm within the pH range of 1.84 to 4.94 (for [La(TPAEN)]^−). The concentration of the complexes was 0.252 mM, while the Cu(II) ion was applied in high excess (12 to 42 times) to ensure pseudo-first-order conditions. The temperature was maintained at 25 °C, and the ionic strength of the solutions was kept constant at 0.15 M NaCl. Dimethylpiperazine (DMP, 50 mM) buffer was used to maintain the pH constant (log K 2 ^H = 4.18) in the pH range of 3.40 to 4.89 (for [La(TPADAC)]^−). At lower pH, the data were supplemented by following the reactions in the range pH of 2.57 to 3.23 using chloroacetic acid (log K 2 ^H = 2.87) at the same concentration. The pseudo-first-order rate constants (k obs) were calculated by fitting the absorbance vs time data to eq : 3 At=(A0−Ae)e^−kobst+Ae where A t , A 0 and A e are the absorbances recorded at time t, at the start of the reaction and upon reaching equilibrium, respectively. The fittings were performed with the computer program Micromath Scientist, version 2.0 (Salt Lake City, UT) by using a standard least-squares procedure.

[6] = Ligand protonation constants by pH-potentiometric titration; assay type: physicochemical; details: I = 0.15 M NaCl, 25 °C; for Σ log K i ^H (i = 1–5): sum of the constants measured here
Description: Ligand protonation constants were determined in 0.15 M NaCl using potentiometric titrations (Figures S1–S2, Supporting Information). The results are compared with those reported previously for OCTAPA^4– and CHXOCTAPA^4– in Table , while the speciation diagrams are shown in Figure S3 (Supporting Information). The first two protonation constants of these ligands, characterized by log K 1 ^H and log K 2 ^H, correspond to the protonation of amine groups, while the remaining protonation constants are ascribed to the carboxylate groups of picolinate and acetate moieties. ,
as §1

Structure (SMILES): O=C(O)CN(CC(=O)O)[C@@H]1CCCC[C@H]1N(CC(=O)O)CC(=O)O (relative stereo) [CDTA^4–, 2,2′,2″,2‴-((trans-cyclohexane-1,2-diyl)bis(azanetriyl))tetraacetic acid]
Σ log K i ^H (i = 1–5) [1]: 22.99 | log K 1 ^H ([2]; ref footnote f): 9.36 | log K 2 ^H ([2]; ref footnote f): 5.95 | log K 3 ^H ([2]; ref footnote f): 3.62 | log K 4 ^H ([2]; ref footnote f): 2.57 | log K 5 ^H ([2]; ref footnote f): 1.49

Structure (SMILES): O=C(O)CN(Cc1cccc(C(=O)O)n1)[C@@H]1CCCC[C@@H]1N(CC(=O)O)Cc1cccc(C(=O)O)n1 [CHXOCTAPA^4–, 6,6′-((((1R,2S)-cyclohexane-1,2-diyl)bis((carboxymethyl)azanediyl))bis(methylene))dipicolinic acid]
Σ log K i ^H (i = 1–5) [1]: 24.04 | log K 1 ^H ([2]; ref footnote c): 9.52 | log K 2 ^H ([2]; ref footnote c): 5.51 | log K 3 ^H ([2]; ref footnote c): 3.99 | log K 4 ^H ([2]; ref footnote c): 3.43 | log K 5 ^H ([2]; ref footnote c): 1.59 | log K 6 ^H ([2]; ref footnote c): 0.61 | log K 1 ^H ([2]; ref footnote d): 9.23 | log K 2 ^H ([2]; ref footnote d): 5.40 | log K 3 ^H ([2]; ref footnote d): 3.94 | log K 4 ^H ([2]; ref footnote d): 2.24 | log K 5 ^H ([2]; ref footnote d): 1.82 | log K 6 ^H ([2]; ref footnote d): 1.91 | pLa ([3]; from literature constants): 16.6 | log K LaL ([4]; 0.15 M NaCl, ref footnote b): 17.82 | log K LaL ^H ([4]; 0.15 M NaCl, ref footnote b): 2.00 | log K LaL ^OH ([4]; 0.15 M NaCl, ref footnote b): 12.75

Structure (SMILES): O=C(O)CN1CCN(CC(=O)O)CCN(Cc2cccc(C(=O)O)n2)CCN(CC(=O)O)CC1 [DO3Apic^4–, 2,2′,2″-(10-((6-carboxypyridin-2-yl)methyl)-1,4,7,10-tetraazacyclododecane-1,4,7-triyl)triacetic acid]
pLa ([3]; from literature constants): 16.6 | log K LaL ([4]; 0.1 M KCl, ref footnote f): 21.17 | log K LaL ^H ([4]; 0.1 M KCl, ref footnote f): 2.55

Structure (SMILES): O=C(O)CN(CCN(CC(=O)O)CC(=O)O)CC(=O)O [EDTA^4–, ethylenediamine-N,N,N′,N′-tetraacetic acid]
Σ log K i ^H (i = 1–5) [1]: 21.27 | log K 1 ^H ([2]; ref footnote f): 9.17 | log K 2 ^H ([2]; ref footnote f): 5.99 | log K 3 ^H ([2]; ref footnote f): 2.73 | log K 4 ^H ([2]; ref footnote f): 2.01 | log K 5 ^H ([2]; ref footnote f): 1.38

Further lines, with some results ahead:

pLa ([3]; from literature constants): 15.6
Structure (SMILES): O=C(O)c1cccc(CN2CCOCCOCCN(Cc3cccc(C(=O)O)n3)CCOCCOCC2)n1 [MACROPA^2–, N,N’-bis[(6-carboxy-2-pyridil)methyl]-4,13-diaza-18-crown-6]
log K LaL ([4]; 0.1 M KCl, ref footnote d): 14.99 | log K LaL ^H ([4]; 0.1 M KCl, ref footnote d): 2.28 ^d | log K LaL ([4]; 0.1 M NaCl, ref footnote e): 13.9

K Cu [5]: 74.3 ± 30.2 M^–1 | log K LaL ^La [3]: 2.85(1) | log K La2L ^OH [3]: 6.99(4) | log K La2LOH ^OH [3]: 9.40(4) | log K LaL [3]: 19.55(1) | pH at which dissociation of the La^3+ complex occurs (speciation diagrams) [3]: < 3.0 | log K LaL ^OH [3]: 12.06(1) | amount of La^3+ not complexed at the beginning of the titration [3]: ~20% | pLa ([3]; from constants measured here): 17.1 | log K 1 ^H [6]: 10.79(1) | log K 2 ^H [6]: 4.95(1) | log K 3 ^H [6]: 4.06(1) | log K 4 ^H [6]: 3.46(1) | log K 5 ^H [6]: 2.94(1) | log K 6 ^H [6]: 0.67(6) | Σ log K i ^H (i = 1–5) [6]: 26.20
Structure (SMILES): O=C(O)c1cccc(CN(Cc2cccc(C(=O)O)n2)[C@@H]2CCCC[C@H]2N(Cc2cccc(C(=O)O)n2)Cc2cccc(C(=O)O)n2)n1 [TPADAC^4–]
k 3 ^Cu [5]: (7.8 ± 2.2)×10^–3 M^–1 s^–1 | k obs for [Cu^2+] = 1 nM [5]: 1.123 × 10^–8 s^–1 | k obs for [Cu^2+] = 1 μM [5]: 7.381 × 10^–6 s^–1 | k 6 ^Cu [5]: (1.5 ± 0.3)×10^7 M^–2 s^–1 | k 2 [5]: 232.3 ± 36.8 M^–2 s^–1 | k 1 [5]: 0.097 ± 0.036 M^–1 s^–1

K Cu [5]: 42.0 ± 4.5 M^–1 | log K LaL ^La [3]: 2.31(13) | log K La2L ^OH [3]: 6.80(10) | log K La2LOH ^OH [3]: 9.57(10) | log K LaL [3]: 19.16(8) | pH at which dissociation of the La^3+ complex occurs (speciation diagrams) [3]: < 2.5 | log K LaL ^OH [3]: 12.62(9) | amount of La^3+ not complexed at the beginning of the titration [3]: ~4% | pLa ([3]; from constants measured here): 19.5 | log K 1 ^H [6]: 7.87(1) | log K 2 ^H [6]: 5.14(1) | log K 3 ^H [6]: 3.89(1) | log K 4 ^H [6]: 3.28(1) | log K 5 ^H [6]: 2.55(1) | log K 6 ^H [6]: 0.89(8) | Σ log K i ^H (i = 1–5) [6]: 22.73
Structure (SMILES): O=C(O)c1cccc(CN(CCN(Cc2cccc(C(=O)O)n2)Cc2cccc(C(=O)O)n2)Cc2cccc(C(=O)O)n2)n1 [TPAEN^4–, N,N,N′N′-tetrakis[(6-carboxypyridin-2-yl)methyl]-ethylenediamine]
k 3 ^Cu [5]: 0.74 ± 0.05 M^–1 s^–1 | k obs for [Cu^2+] = 1 nM [5]: 4.34 × 10^–7 s^–1 | k obs for [Cu^2+] = 1 μM [5]: 3.45 × 10^–4 s^–1 | k 6 ^Cu [5]: (7.2 ± 0.5)×10^8 M^–2 s^–1 | k 2 [5]: 110.93 ± 10.42 M^–2 s^–1 | k 1 [5]: 2.24 ± 0.13 M^–1 s^–1
